Reference: patent publication US12006503B2, “Fusion proteins and methods thereof” (The Trustees of Columbia University in the City of New York, priority 2012, dated 2024)
pIC50: −log10 of the molar value. Entries after “also recorded” stand apart in the source; their conditions may differ.

Key:
[1] = test system: intracranial luciferase-expressing FGFR3-TACC3-driven glioma xenografts; test: Orthotopic (intracranial) FGFR3-TACC3-driven glioma xenografts, drug treatment, survival; type: in vivo, mouse; conditions: 50 mg/kg, oral, 20 days
Description: Mice were monitored daily and sacrificed when neurological symptoms appeared.

[2] = test system: Rat1A cells expressing FGFR3-TACC3 fusion; test: Growth of Rat1A cells expressing FGFR3-TACC3 after FGFR3 shRNA lentivirus (trypan blue exclusion); type: cell-based, rat; conditions: lentiviral shRNA
Protocol: At the left, parallel cultures of GSC-1123 cells were transduced in triplicate. Rat1A cells expressing FGFR3-TACC3 fusion were transduced with lentivirus expressing a non-targeting shRNA (Ctr) or shRNA sequences targeting FGFR3 (sh2, sh3, sh4). Five days after infection cells were plated at density of 2λ10^4 cells/well in triplicate and the number of trypan blue excluding cells was scored at the indicated times. […] Values are the means±standard deviation (n=3). At the right sided figure, GSC-1123 cells were transduced with lentivirus expressing a non-targeting shRNA (sh-Ctr) or lentivirus expressing sh-3 and sh-4 sequences targeting FGFR3. Western Blot analysis was performed on parallel cultures using the FGFR3 antibody to the detect FGFT3-TACC3 fusion protein. β-actin is shown as a control for loading.
Cloning and Lentiviral production. Lentiviral expression vectors, pLOC-GFP (Open Biosystems) and pTomo-shp53, were used to clone FGFR3, TACC3, FGFR3-TACC3, FGFR3-TACC3-K508M, and FGFR1-TACC1. pTomo-shp53 was a gift of Inder Verma and Dinorah Friedman-Morvinski (Salk Institute, San Diego). The FGFR3-TACC3-K508M mutant was generated using the Phusion Site Direct Mutagenesis kit (NEB, USA). MISSION shRNAs clones (pLK0.1 lentiviral expression vectors) against FGFR3 were purchased from Sigma. The hairpin sequences targeting the FGFR3 gene are—

[3] = test system: nonclinical models with FGFR aberrations; conditions: squamous NSCLC, gastric, breast, HCC, endometrial, bladder; cited from earlier work
[4] = test system: all members of the FGFR family; conditions: cited from earlier work
[5] = test system: recurrent GBM harboring FGFR3-TACC3 fusions; test: Phase I trial of JNJ-42756493 in patients with recurrent GBM harboring FGFR3-TACC3 (MRI, RANO, volumetry)
Description: (A) Post-gadolinium T1 weighted images show the target lesion on the right parietal lobe. […] (B) Analysis of sum of product diameters (SPD) before and during the anti-FGFR treatment (RANO criteria). (C) Analysis of tumor volume (cm3) before and during the anti-FGFR treatment. […] (D) Perfusion images at baseline and after 20 days of anti-FGFR treatment. rCBV (relative cerebral blood volume). Post-gadolinium T1 weighted images with color overlay of rCBV are shown. […] (F) Analysis of sum of product diameters (SPD) before and during the anti-FGFR treatment.
MRI imaging and evaluation of clinical response to JNJ-42756493. Baseline and follow-up imaging assessments were performed on 1.5 Tesla MR imaging systems, including at least axial T1 weighted images before gadolinium injection, Axial or 3D FLAIR (Fluid-Attenuated Inversion-Recovery), dynamic susceptibility contrast MR perfusion (0.1 mmol/kg of gadobutrol), axial and 3D T1 weighted images after gadolinium injection. Tumor response was assessed according to the RANO criteria (33). Contrast-enhancing lesion volume was assessed with the help of a semi-automated volumetry tool (SegmentiX), based on shape-detection and thresholding, with control and manual correction of edges when necessary. Since exclusion of cystic or necrotic portions of the lesion may be affected by operator subjectivity, both were included for volumetric and axial measurements.
DSC (dynamic susceptibility contrast) perfusion datasets were processed with vendor's software suite (Neuroperfusion, Philips), including coregistration and rCBV (relative cerebral blood volume) parametric maps generation with 3 different algorithms (Gamma-variate fitting, Arterial Input Function based deconvolution and Model Free).

activated FGFR = conditions: cited from earlier work
[6] = test system: GIC-1123 tumor xenografts; test: Subcutaneous GIC-1123 xenografts treated with JNJ-42756493; conditions: 12 mg/kg, oral
Protocol: After tumor establishment (arrow) mice were treated with vehicle or JNJ-42756493 (12 mg/kg) for 14 days. Values are mean tumor volumes±SD, (n=9 mice per group). P-value of the slope calculated from the treatment starting point (arrow) is 0.04.
Subcutaneous xenografts and drug treatment. GIC-1123 cells (5×10^5) were injected subcutaneously in the flank of athymic nude (Nu/Nu) mice (Charles River Laboratories). Mice carrying ˜200 mm 3 subcutaneous tumors were randomized to receive 12 mg/kg JNJ-42756493 or DMSO in 1% Tween 80 by oral gavage. Tumor diameters were measured with caliper and tumor volumes estimated using the formula: 0.5×length×width 2. Data are mean±SD of nine mice in each group. Mice were sacrificed when tumors in the control group reached the maximal size allowed by the IACUC Committee at Columbia University.

[7] = test system: human glioma stem cells GIC-1123; conditions: GIC-1123, 72 hours, MTT
Protocol: (§1) Cell culture and cell growth assay. GIC-1123 gliomaspheres were cultured in neurobasal medium (Invitrogen) supplemented with B27, N2 (Invitrogen), EGF and FGF2 (20 ng/ml, PeproTech). Mouse astrocytes Ink4A-Arf−/− were cultured in DMEM supplemented with 10% Fetal Bovine Serum. Cells were seeded at 1,000 cells/well in a 96-well plate and treated with JNJ-42756493. After 72 hours cell viability was assessed using the 3-(4,5-dimethythiazol-2-yl)-2,5-diphenyl tetrazolium bromide (MTT) assay. Data are mean±SEM of six replicates. Experiments were performed three times.

[8] = test system: mouse astrocytes expressing FGFR3-TACC3-KD or the empty vector; conditions: cells expressing KD mutant fusion or empty vector
Protocol: as §1

[9] = test system: mouse astrocytes expressing FGFR3-TACC3; conditions: mouse astrocytes expressing FGFR3-TACC3, 72 hours, MTT
Protocol: as §1

Rat1A cells = test: Karyotype analysis (chromosome counts, aneuploidy) of Rat1A cells; type: cell-based, rat; conditions: five days
Protocol: Distribution of chromosome counts of cells arrested in mitosis and analyzed for karyotypes using DAPI. Chromosomes were counted in 100 metaphase cells for each condition to determine the ploidy and the diversity of chromosome counts within the cell population. FGFR3-TACC3 fusion induces aneuploidy.
The upper panel is a karyotype analysis of Rat1A cells transduced with control or FGFR3-TACC3 lentivirus and treated with vehicle (DMSO) or PD173470 (100 nM) for five days.
(§2) Karyotype analysis. Cultured cells were colcemid (20 ng/ml) treated for 90 minutes before harvesting for karyotopic analysis as detailed in Extended Experimental procedures. At least one hundred cells in metaphase were examined for chromosome count. PMSCS was scored in cells where a majority of the sister chromosomes were no longer associated. Two-tailed unpaired t-tests with Welch's correction were performed for comparison of means analysis.
Karyotypic Analysis. The colcemid treated cells were trypsinized, centrifuged for 7 minutes at 200×g, and the cell pellet re-suspended in warmed hypotonic solution and incubated at 37° C. for 13 minutes. The swollen cells were then centrifuged and the pellet re-suspended in 8 ml of Carnoy's fixative (3:1 methanol:glacial acetic acid). […] Slides were stained with DAPI and metaphases were analyzed under a fluorescent microscope.

[10] = test system: Rat1A cells and Ink4A;Arf-/- astrocytes; test: Premature sister chromatid separation (PMSCS) in metaphase spreads; type: cell-based; conditions: cells expressing FGFR3-TACC3
Description: Correction of premature sister chromatid separation (PMSCS) by PD173470 in cells expressing FGFR3-TACC3. Panels show representative metaphase spreads. DNA was stained by DAPI.
Left, panels show representative metaphase spreads. Right, quantitative analysis of metaphases with loss of sister chromatid cohesion. The number of mitosis with PMSCS in Ink4A; Arf−/− astrocytes was scored in at least 100 methaphases for each condition in three independent experiments. The number of mitosis with PMSCS was scored in triplicate samples of Rat1A cells. FIG. 13D is a graph showing nocodazole was added for the indicated durations to Rat1A-H2B-GFP cells transduced with the specified lentiviruses. The mitotic index at each time point was determined by quantitating the H2B-GFP-positive cells in mitosis at each time point. Data are presented as average and standard deviation (n=3).
as §2

FGFR3-TACC3 = biological target: T1, FGFR3-TACC3 (Homo sapiens, UniProt P22607); test: Western blot of constitutive phosphorylation of FGFR3-TACC3 and FRS2 in Ink4A;Arf-/- astrocytes; type: cell-based, mouse; conditions: 100 nM PD173074, Ink4A;Arf-/- astrocytes
T1 construct: a protein of 1,048 amino acids resulting from the fusion of a FGFR3 amino-terminal portion of residues 1-758; expressed in transfected cells; host or cells: Ink4A;Arf-/- mouse astrocytes, lentiviral transduction (pLOC-GFP / pTomo vectors)
Protocol: Ink4A; Arf−/− astrocytes transduced with empty lentivirus or a lentivirus expressing FGFR3-TACC3 or FGFR3-TACC3-K508M were left untreated (0) or treated with 100 nM of the FGFR inhibitor PD173074 for the indicated times. Phospho-proteins and total proteins were analyzed by Western blot using the indicated antibodies.

[11] = test system: glioma xenografts of FGFR3-TACC3 transformed astrocytes; test: Subcutaneous glioma xenografts of FGFR3-TACC3 transformed astrocytes, drug treatment; type: in vivo, mouse; conditions: 50 mg/kg, oral gavage
Protocol: Subcutaneous xenografts and drug treatment. […] For experiments with FGFR inhibitors, mice carrying ˜200-300 mm 3 subcutaneous tumors derived from Ink4A; Arf−/− astrocytes were randomized to receive 50 mg/kg PD173074 in 0.05 M lactate buffer (pH 5) or an equal volume of lactate buffer by oral gavage. Treatment was administered for three cycles consisting of four consecutive days followed by two days of rest. […] Data are expressed as mean±SE.

For `COc1cc(CCc2cc(NC(=O)c3ccc(N4C[C@@H](C)N[C@@H](C)C4)cc3)n[nH]2)cc(OC)c1` [AZD4547], the “survival of mice with intracranial FGFR3-TACC3 glioma” value [1] was “markedly prolonged survival”.

In the case of “sh-3: MISSION shRNA hairpin targeting the FGFR3 gene, SEQ ID NO: 183 (guide GTTCCACTGCAAGGTGTACAG; the letters are possibly those of the target site)”, the “growth of cells ectopically expressing FGFR3-TACC3 after FGFR3 silencing” value [2] was “reverted the growth rate”.

In the case of `COc1cc(OC)cc(N(CCNC(C)C)c2ccc3ncc(-c4cnn(C)c4)nc3c2)c1` [JNJ-42756493], the “antitumor activities in nonclinical models with FGFR aberrations” value [3] is given as “potent antitumor activities”, the “IC50 values for all members of the FGFR family” value [4] is given as “low nanomolar range” and the “change of the enhancing parenchyma of the tumor mass” value ([5]; Patient 1) is given as −44%. For the same compound, the duration of stabilization ([5]; Patient 1) was 115 days, the “toxicity observed during treatment” value ([5]; Patient 1) was “grade I hyperphosphatemia, asthenia, dysgueusia, dry mouth, keratitis, and grade II nail changes” and the “tumor response on MRI (RANO sum of product diameters, volumetry)” value ([5]; Patient 1, 12 mg/day, 7 days on/7 days off) was “stabilization of the tumor; also recorded: stable disease; also recorded: disease stabilization”. For the same compound, the “extent of tumor vascularity (rCBV)” value ([5]; Patient 1, MR perfusion) was “marked reduction”, the clinical status ([5]; Patient 1, after 3 weeks) was “marked clinical improvement” and the “time to best response” value ([5]; Patient 2) was 104 days. For the same compound, the “time to disease progression after start of anti-FGFR” value ([5]; Patient 2) was 134 days, the “toxicity observed during treatment” value ([5]; Patient 2) was “Grade I hyperphosphatemia, nail changes, and mucositis” and the tumor response category ([5]; Patient 2) was “minor response”. The clinical status ([5]; Patient 2, after 4 weeks) was “clinical improvement”, the “reduction of tumor size according to the RANO criteria” value ([5]; Patient 2, best response) was 22% and the “tumor reduction according to volumetry” value ([5]; Patient 2, best response) was 28%. The “concentration inhibiting tyrosine phosphorylation of activated FGFR” value (activated FGFR) was “nanomolar concentrations”, the “growth of GIC-1123 tumor xenografts” value [6] was “potent growth inhibition” and the “tumor regression of GIC-1123 xenografts” value ([6]; after two weeks) was “statistically significant tumor regression”. For the same compound, the pIC50 [7] was 8.81, the “sensitivity to FGFR inhibition” value [8] was “but not cells expressing the KD mutant fusion or the empty vector” and the pIC50 [9] was 8.52.

With “sh-4: MISSION shRNA hairpin targeting the FGFR3 gene, SEQ ID NO: 184 (guide GCACAACCTCGACTACTACAA; the letters are possibly those of the target site)” the “growth of cells ectopically expressing FGFR3-TACC3 after FGFR3 silencing” value [2] was “reverted the growth rate”.

In the case of `CCN(CC)CCCCNc1ncc2cc(-c3cc(OC)cc(OC)c3)c(NC(=O)NC(C)(C)C)nc2n1` [PD173074], the “distribution of chromosome counts” value (Rat1A cells; Rat1A expressing FGFR3-TACC3, 100 nM) was “restored the narrow distribution of chromosome counts”, the “rescue of the aneuploidy caused by FGFR3-TACC3” value (Rat1A cells; Rat1A, 100 nM) was “over 80%” and the “cohesion defect (premature sister chromatid separation)” value [10] was “largely corrected”. For the same compound, the “cohesion defect (premature sister chromatid separation)” value ([10]; listed as PD173470) was “Correction”, the “constitutive phosphorylation of the TK domain of FGFR3-TACC3 and of FRS2” value (FGFR3-TACC3) was “abolished” and the “tumor growth of FGFR3-TACC3 glioma subcutaneous xenografts” value [11] was “potent growth inhibition”.
